Assays:
[1] = tested on: EOC-20 microglia; test: TNFα-stimulated nitrite production in EOC-20 microglia (Griess assay); format: cell-based, mouse; conditions: for net suppression of nitrite: TNFα-stimulated, nitrite measured 24 h later
Description: Mouse EOC-20 microglia (American Tissue Type Collection, Gaithersville Md. USA) (Hensley et al., 2003; Walker et al., 1995) were grown in DMEM containing 20% L929 fibroblast-supplemented medium. Nitrite production by cytokine stimulated microglia was measured in cell culture medium using the Griess diazotization reaction as previously reported (Hensley et al., 2003; West et al., 2004).
The efficacy of (R)-LKE1 and (R)-LK as inhibitors of microglial cell activation in response to pro-inflammatory cytokines is shown in FIGS. 1A & 1B. EOC-20 murine microglial cells were pretreated 30 minutes with test compounds (e.g. (R)-LK or (R)-LKE1) dissolved in DMSO and diluted 1:200 into cell culture medium; or with DMSO vehicle only. Cells were then challenged with cytokine and allowed to incubate undisturbed in the cell culture incubator for 24 h prior to Griess assay. The lanthionine ketimine ester in this case is the structure shown above as (R)-LKE1. After drug treatment cells were then stimulated with 40 ng/mL recombinant murine tumor necrosis factor alpha (TNF α) plus 50U/mL interferon gamma (IFNγ). Nitrite (NO2^−) was measured in the cell culture medium 24 hours later, as an index of nitric oxide production. Cell viability was then assayed in the same cultures using a commercially available tetrazolium reduction assay (Promega OneStep™; Promega, Gaithersburg Md.). Cell culture methods were those published by the inventor (Hensley et al., 2003; West et al., 2004).
In a EOC-20 microglial assay the cells were stimulated with TNFα in the presence or absence of 100 microM (R)- or (S)-LK, and nitrite was measured 24 h later, the net suppression of nitrite was 13% by (S)-LK and 15% by (R)-LK.
The reduced lanthionine ketimine (i.e., TMDCA) was also tested against TNFα-stimulated nitrite production in the EOC-20 screen.

[2] = tested on: HT4 cells; test: glutamate toxicity in HT4 cells (LDH leakage); format: cell-based
Description: (§1) FIG. 13. (R)-LK protects HT4 cells against excitotoxicity. Determination of cell viability: HT4 cells were seeded in 6 well plates (1×10^7 cell/well). After 24 h, cell media was changed and (R)-LK (in DMSO) was used for 1 h prior to glutamate challenge. Powdered (R)-LK was dissolved in DMSO just before use. The viability of cells in culture was assessed by measuring the leakage of lactate dehydrogenase (LDH) from cells to media 18-24 h following glutamate treatment using the in vitro toxicology assay kit from Sigma Chemical Co. (St. Louis, Mo., USA). LDH leakage was determined using the following equation: % of total LDH leaked=(LDH activity in the cell culture media/total LDH activity) where total LDH activity=LDH activity in cell monolayer+LDH activity of detached cells+LDH activity in the cell culture media.
as §1, with “14. (R)-LKE1” for “13. (R)-LK”, “Determination of cell viability: HT4 cells were seeded in 6 well plates (1×10^7 cell/well). After 24 h, cell media was changed and (R)-LK (in DMSO) was used for 1 h prior to glutamate challenge. Powdered (R)-LK was dissolved in DMSO just before use.” left out, “media. […]” for “media.”

[3] = biological target: synaptosomal membranes; conditions: read-out: affinity of binding to synaptosomal membranes; cited from earlier work
[4] = tested on: NSC-34 cells; test: NSC-34 viability after H2O2 challenge (tetrazolium reduction); format: cell-based, mouse; conditions: for protection against H2O2: 0.5 mM, 6 h pretreatment, 1 mM H2O2, viability 24 h later
Description: NSC-34 cells were challenged directly with H2O2 for 24 h and the viability was assessed by tetrazolium reduction assay.
Furthermore, the invention contemplates that cytoprotection might be achieved by providing metabolic precursors to LK, rather than direct addition of the compound. For example, the inventor has studied the effects of NSC-34 cells treated with ethyl pyruvate in the presence or absence of lanthionine for 6 h prior to challenge with H2O2 and has assayed the viability of these cells 24 h later (FIG. 10). As reported in previous studies, ethyl pyruvate alone was protective against peroxide-induced cell death (Desagher et al., 1997; Nakamichi et al., 2005) with complete protection at ethyl pyruvate concentrations >1 mM (approximately 2-fold higher than ambient cell culture medium pyruvate concentrations; data not shown).
(R)-LKE1 protects NSC-34 motoneuron x neuroblastoma hybrid cells from hydrogen peroxide toxicity (FIG. 4). Cells were treated with the indicated concentration of (R)-LKE1. Thirty minutes later cells were challenged with the indicated concentration of hydrogen peroxide. Cell viability was assayed 24 hours later by tetrazolium reduction using a commercially available kit (Promega).
NSC-34 motor neuron-like cells, derived through the fusion of a neuroblastoma cell line with embryonic mouse motor neurons (Cashman et al., 1992), were grown in Dulbeco's modified essential medium (DMEM) plus 5% fetal bovine serum (FBS) and 1% penicillin plus 1% streptomycin (Pen/Strep). Recombinant TNFα and interferon gamma (IFNγ) were purchased from BD Biosciences (Pasadena Calif. USA). Lanthionine was purchased from Sequoia Research Products Ltd. (Pangbourne, UK). All other reagents were of the highest available commercial purity.
NSC-34 cells were exposed to 1 mM H2O2 with or without ethyl-pyruvate and/or lantionine (LK).

lanthionine ketimine [LK]
inhibition of nitrite production ([1]; TNFα-stimulated EOC-20 microglia): inhibited nitrite production
glutamate toxicity (LDH release) [2]: significantly diminished glutamate toxicity
Kd [3]: 50 nM

O=C(O)C1=CSC[C@H](C(=O)O)N1 [(S)-LK]
net suppression of nitrite ([1]; 100 microM): 13%

O=C(O)C1CSCC(C(=O)O)N1 (centres unmarked) [TMDCA, thiomorpholine dicarboxylic acid]
inhibition of the cytokine effect ([1]; 100 microM, TNFα-stimulated nitrite production): about 32.5%
microglial activation, % of the maximum ([1]; 100 microM, TNFα-stimulated nitrite production, +/- SD): 67.5+/−3.8%

CCOC(=O)C(C)=O [ethyl pyruvate]
protection against H2O2 [4]: significant but partial protection
concentration giving complete protection against peroxide-induced cell death ([4]; data not shown): > 1 mM

O=C(O)C1=N[C@H](C(=O)O)CSC1 [(R)-LK]
net suppression of nitrite ([1]; 100 microM): 15%
protection from H2O2-induced cell death ([4]; H2O2 challenge 24 h): protects NSC-34 motor-neuron like cells from hydrogen peroxide toxicity

N[C@@H](CSC[C@H](N)C(=O)O)C(=O)O [lanthionine]
protection against H2O2 [4]: no protective effect

Reference: patent publication US7683055B2, “Lanthionine-related compounds for the treatment of inflammatory diseases” (Oklahoma Medical Research Foundation, priority 2006, dated 2010)
